Measurements taken from US20240350643A1, “PROTEIN DEGRADATION AGENT” (SUZHOU KINTOR PHARMACEUTICALS, INC., priority 2021, published 2024).

Key:
c-Myc protein = biological target: T1, c-Myc protein (Homo sapiens, UniProt P01106); assay: Ability of compounds to degrade c-Myc protein in HL60 cells (ELISA); format: cell-based; details: HL-60, 1 μM compound, 24 h, read-out: HL60 cells Protein degradation rate (1 μM)
T1 construct: endogenous in cells; host or cells: HL60 cells
Experimental: I Activity test 1: Ability of compounds to degrade c-Myc protein in HL60 cells:
HL60 cells in the exponential growth phase were centrifuged, diluted with fresh culture mediums to 6×10^4 cells/100 μL and plated into a 96-well plate at 100 μL per well.
Preparation of test compounds: the compounds were weighed and diluted with DMSO to a 10 mM stock solution for later use. According to test requirements, drugs were diluted with cell culture mediums, with ten-fold dilutions starting from 10 μM, to achieve 3 concentration gradients: 10 μM, 1 μM and 100 NM; and finally, 1 μL of the drugs (DMSO content: 0.01%) were added to each well. For the blank control group, DMSO was also diluted with cell culture mediums, and finally, 1 μL of the control reagent (DMSO content: 0.01%) was added to each well.
3. Effect of drugs on c-Myc in cells as determined by ELISA
After 24 h of drug action, the culture mediums were removed, and the cells were washed once with ice-cold 1× PBS. PBS was removed, and 100 μL of ice-cold 1× Cell Lysis Buffer plus 1 mM phenylmethylsulfonyl fluoride (PMSF) was added to each well. The plate was incubated on ice for 20 min and centrifuged at 4000 RPM at 4° C. for 10 min for later use.
4. Reagent and antibody preparation in ELISA kit 1× wash buffer • 1). 16 mL of ELISA wash buffer concentrate (25×) was diluted with 384 mL of deionized water or distilled water, labeled as 1× Wash Buffer. • 2). The concentrate and 1× Wash Buffer were stored in the refrigerator. The diluted buffer was used within 14 days.
The cell extraction buffer contains 10 mM Tris (pH 7.4), 100 mM NaCl, 1 mM EDTA, 1 mM EGTA, 1 mM NaF, 20 mM Na4P2O7 2 mM Na3VO4. 1% Triton™ ×-100, 10% glycerol, 0.1% SDS and 0.5% deoxycholate. Immediately before use, PMSF (0.3 M stock solution in DMSO) was added to the buffer to a final concentration of 1 mM.
Standard curve configuration: The standard liquid was diluted using glass or plastic tubes. • 1). Huc-Myc (total) standard liquid (Invitrogen, KH02041) was reconstituted with a standard dilution to 1000 pg/mL. Refer to the standard vial label for instructions. The contents were gently swirled or mixed and then allowed to stand for 10 minutes to ensure complete reconstitution, labeled as 1,000 pg/mL human c-Myc. The standard liquid was used within 1 hour after reconstitution. • 2). 250 μL of standard dilution buffers were added to 7 test tubes respectively labeled 500, 250, 125, 62.5, 31.25, 15,63 and 0 pg/mL. • 3). 250 μL of the 1000 pg/ml standard stock solution was added to the first EP tube to a concentration of 500 pg/mL, vortexed and mixed evenly. 250 μL of the resulting mixture was further pipetted and added to the second EP tube to a concentration of 250 pg/mL. Serial dilutions were performed until the sixth EP tube with a concentration of 15.63 pg/mL. Dilution was not performed on the last EP tube. • 4). The remaining reconstituted standard liquid should be discarded, or aliquoted and frozen at −80° C. for further use. Standards can be frozen and thawed only once without losing immunoreactivity.
1× anti-rabbit IgG HRP solution: 1× anti-rabbit IgG HRP solution was prepared within 15 minutes of use. The anti-rabbit IgG HRP (100×) contained 50% viscous glycerol. To ensure accurate dilutions, the following operations were carried out: 1 For each 8-well test strip used in the test, 10 μl, of the anti-rabbit IgG -IRP (100×) solution was pipetted, wherein the pipette tip was wiped with clean absorbent paper to remove excess solutions, and then the solution was dispensed into a test tube containing 1 mL of HRP diluent and mixed thoroughly. 2. The unused anti-rabbit IgG HRP (100×) was placed in the refrigerator for storage.
50 μL of the standard liquid was added to the appropriate wells and not added to the blank control well. Except for the blank control well, 50 μL of Hu c-Myc (total) detection antibody solution was added to each well and mixed by tapping the side face of the plate. […]

HL60 cells = assay: Anti-proliferation ability of compounds on HL60 cells (CTG); format: cell-based, human; details: Homo sapiens, HL-60, 72 h, 3 days, CellTiter-Glo, read-out: HL60 cells Proliferation inhibitory activity
Experimental: II. Activity test 2: Anti-proliferation ability of compounds on HL60 cells: 1 Cell plating
HL60 cells in the logarithmic growth phase were counted and plated evenly in a 96-well transparent bottom white plate at 20000 cells per well and 100 μL per well.
A certain amount of the compounds was weighed and diluted with DMSO to a 10 mM stock solution. The culture mediums corresponding to the cells were taken, and the drugs were diluted to the concentration required by the test, shaken gently and mixed evenly. 50 μl of the gradient dilution of the diluted compound was added to each well of the plated cells, and 50 μL of 0.1% DMSO was added to the control group. The plate was shaken gently, mixed evenly and incubated in a cell culture incubator for 3 days.
• 3.1 The CellTiter-GLo™ (CTG) reagent was taken in advance from the −20° C. refrigerator and equilibrated to room temperature in the dark (white bottle+brown bottle, 1:1 mixing evenly into the brown bottle, for later use). • 3.2 The 96-well plate was taken out and inspected under a microscope for growth situation. • 3.3 The bottom of the 96-well plate was tagged with white paper, and then the plate was wrapped with tin foil paper, shaken at 37° C. at 300 r for 10 min and mixed evenly. • 3.4 50 ul of CTG detection reagent was added to each well, Luminescence signal was detected using a microplate reader, and the inhibition rate was calculated. IC50 values of the compounds were calculated by XLfit software to evaluate the proliferation inhibitory activity on HL60 cells.

T1 sequence (P01106 whole entry): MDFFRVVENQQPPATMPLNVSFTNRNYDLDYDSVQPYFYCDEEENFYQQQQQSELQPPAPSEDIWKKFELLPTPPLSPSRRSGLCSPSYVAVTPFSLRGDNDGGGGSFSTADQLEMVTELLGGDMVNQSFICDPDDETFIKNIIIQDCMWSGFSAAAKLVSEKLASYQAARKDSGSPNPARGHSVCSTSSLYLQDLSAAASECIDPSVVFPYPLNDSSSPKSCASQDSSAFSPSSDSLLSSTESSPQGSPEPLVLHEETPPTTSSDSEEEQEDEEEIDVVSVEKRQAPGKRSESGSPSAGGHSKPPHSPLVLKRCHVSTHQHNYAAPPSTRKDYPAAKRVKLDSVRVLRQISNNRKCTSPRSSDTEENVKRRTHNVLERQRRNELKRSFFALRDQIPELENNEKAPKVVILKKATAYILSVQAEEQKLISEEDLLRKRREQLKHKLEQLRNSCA

Compound	inhibition at 1 µM (c-Myc protein) [%]	IC50 (HL60 cells) [nM]
CN(CCc1ccc(Cl)c(Cl)c1)Cc1ccc(CNCc2ccc3c(c2)C(=O)N(C2CCC(=O)NC2=O)C3=O)cc1 (centres unmarked) [A184]	60 to 90	11.9 ± 5.5
O=C1CCC(N2C(=O)c3ccc(C(=O)NCc4ccc(CNCCc5cccc6ccccc56)cc4)cc3C2=O)C(=O)N1 (centres unmarked) [A73]	60 to 90	59.3 ± 5.7
CN(CCc1ccc(Cl)cc1Cl)Cc1ccc(CNC(=O)c2ccc3c(c2)C(=O)N(C2CCC(=O)NC2=O)C3=O)cc1 (centres unmarked) [A100]	60 to 90	0.9
O=C(CCc1cccc(Cl)c1Cl)NCc1ccc(CNC(=O)c2ccc3c(c2)C(=O)N(C2CCC(=O)NC2=O)C3=O)cc1 (centres unmarked) [A61]	60 to 90	108 ± 6.5
O=C(Cn1c2ccccc2c2ccncc21)NC[C@H]1CC[C@H](CNC(=O)c2ccc3c(c2)C(=O)N(C2CCC(=O)NC2=O)C3=O)CC1 (some centres unmarked) [A25]	30 to 60	270 ± 126
O=C1CCC(N2C(=O)c3ccc(C(=O)NCc4ccc(COCCn5c6ccccc6c6cccnc65)cc4)cc3C2=O)C(=O)N1 (centres unmarked) [A76]	60 to 90	432 ± 138
CN(CCn1c2ccccc2c2cccnc21)Cc1ccc(C(C)(C)NC(=O)c2ccc3c(c2)C(=O)N(C2CCC(=O)NC2=O)C3=O)cc1 (centres unmarked) [A148]	60 to 90	12 ± 8.1
O=C1CCC(N2C(=O)c3ccc(C(=O)NCc4ccc(C5(NC(=O)Cc6cccc7ccccc67)CC5)cc4)cc3C2=O)C(=O)N1 (centres unmarked) [A141]	60 to 90	6.5 ± 0.3
CC(C)(NC(=O)Cc1cccc2ccccc12)c1ccc(CNC(=O)c2ccc3c(c2)C(=O)N(C2CCC(=O)NC2=O)C3=O)cc1 (centres unmarked) [A149]	60 to 90	7.6 ± 3
COCCN(CCn1c2ccccc2c2cccnc21)Cc1ccc(CNC(=O)c2ccc3c(c2)C(=O)N(C2CCC(=O)NC2=O)C3=O)cc1 (centres unmarked) [A91]	60 to 90	12 ± 4.4
CN(Cc1ccc(CNC(=O)c2ccc3c(c2)C(=O)N(C2CCC(=O)NC2=O)C3=O)cc1)C(=O)Cn1c2ccccc2c2cccnc21 (centres unmarked) [A72]	60 to 90	45.6 ± 3
CN(CCn1c2ccccc2c2cccnc21)C1(c2ccc(CNC(=O)c3ccc4c(c3)C(=O)N(C3CCC(=O)NC3=O)C4=O)cc2)CC1 (centres unmarked) [A144]	60 to 90	18.4 ± 7.4
CN(CCc1cccc2ccccc12)Cc1ccc(CNC(=O)c2ccc3c(c2)C(=O)N(C2CCC(=O)NC2=O)C3=O)c(F)c1 (centres unmarked) [A105]	60 to 90	8.3 ± 1.9
O=C1CCC(N2C(=O)c3ccc(C(=O)NCc4ccc(COCCc5cccc6ccccc56)cc4)cc3C2=O)C(=O)N1 (centres unmarked) [A75]	60 to 90	2730 ± 614
O=C(Cc1cccc2ccc(F)cc12)NCc1ccc(CNC(=O)c2ccc3c(c2)C(=O)N(C2CCC(=O)NC2=O)C3=O)cc1 (centres unmarked) [A36]	30 to 60	13.4 ± 3.3
O=C(Cn1c2ccccc2c2cccnc21)NCc1ccc(CC(=O)Nc2ccc3c(c2)C(=O)N(C2CCC(=O)NC2=O)C3=O)cc1 (centres unmarked) [A166]	60 to 90	1.7 ± 0.3
O=C(Cc1ccccc1Cl)NCc1ccc(CNC(=O)c2ccc3c(c2)C(=O)N(C2CCC(=O)NC2=O)C3=O)cc1 (centres unmarked) [A57]	60 to 90	214 ± 4.7

Compound	inhibition at 1 µM (c-Myc protein) [%]	IC50 (HL60 cells) [nM]
CN(CCn1c2ccccc2c2cccnc21)Cc1ccc(CNC(=O)c2ccc3c(c2)CN(C2CCC(=O)NC2=O)C3=O)cc1 (centres unmarked) [A156]	60 to 90	< 3
CC(C)N(CCn1c2ccccc2c2cccnc21)Cc1ccc(CNC(=O)c2ccc3c(c2)C(=O)N(C2CCC(=O)NC2=O)C3=O)cc1 (centres unmarked) [A86]	60 to 90	24.4 ± 10.4
O=C(Cn1c2ccccc2c2cccnc21)NCCCCCCCCCc1ccc2c(c1)C(=O)N(C1CCC(=O)NC1=O)C2=O (centres unmarked) [A20]	60 to 90	490 ± 64.9
O=C(Cn1c2ccccc2c2cccnc21)NCCc1ccc(CNC(=O)c2ccc3c(c2)C(=O)N(C2CCC(=O)NC2=O)C3=O)cc1 (centres unmarked) [A41]	60 to 90	155 ± 8.9
O=C(Cc1cccc2ccccc12)NCCCCCCNC(=O)c1ccc2c(c1)C(=O)N(C1CCC(=O)NC1=O)C2=O (centres unmarked) [A8]	30 to 60	69.8 ± 8.8
O=C(Cn1c2ccccc2c2cccnc21)NCc1ccc(CNC(=O)c2ccc3c(c2)C(=O)N(C2CCC(=O)NC2=O)C3=O)cn1 (centres unmarked) [A129]	60 to 90	36.1 ± 13.3
CN(CCn1c2ccccc2c2cccnc21)Cc1ccc(CNC(=O)c2ccc3c(c2)C(=O)N(C2CCC(=O)NC2=O)C3=O)c(C(F)(F)F)c1 (centres unmarked) [A120]	60 to 90	17.8 ± 4.9
O=C1CCC(N2C(=O)c3ccc(C(=O)NC[C@H]4CC[C@H](CNC(=O)Nc5cccc6ncccc56)CC4)cc3C2=O)C(=O)N1 (some centres unmarked) [A50]	10 to 30	10400 ± 235
O=C1CCC(N2C(=O)c3ccc(C(=O)NC[C@H]4CC[C@H](CNC(=O)Nc5cncc6ccccc56)CC4)cc3C2=O)C(=O)N1 (some centres unmarked) [A52]	30 to 60	8060 ± 637
CN(CCc1cccc2ccccc12)Cc1ccc(C2(NC(=O)c3ccc4c(c3)C(=O)N(C3CCC(=O)NC3=O)C4=O)CC2)cc1 (centres unmarked) [A139]	60 to 90	22.5 ± 14.3
O=C(Cc1ccc(Cl)cc1)NCc1ccc(CNC(=O)c2ccc3c(c2)C(=O)N(C2CCC(=O)NC2=O)C3=O)cc1 (centres unmarked) [A59]	60 to 90	173 ± 61.3
CC(C)(NC(=O)c1ccc2c(c1)C(=O)N(C1CCC(=O)NC1=O)C2=O)c1ccc(CNC(=O)Cn2c3ccccc3c3cccnc32)cc1 (centres unmarked) [A146]	60 to 90	14.7 ± 4
O=C(Cn1c2ccccc2c2cccnc21)NCc1ccc(CNC(=O)c2ccc3c(c2)C(=O)N(C2CCC(=O)NC2=O)C3=O)c(C(F)(F)F)c1 (centres unmarked) [A118]	60 to 90	18.2 ± 11.4
CN(CCn1c2ccccc2c2cccnc21)C(C)(C)c1ccc(CNC(=O)c2ccc3c(c2)C(=O)N(C2CCC(=O)NC2=O)C3=O)cc1 (centres unmarked) [A151]	60 to 90	11.3 ± 4.7
O=C(Cc1cccc2ccccc12)NCc1csc(CNC(=O)c2ccc3c(c2)C(=O)N(C2CCC(=O)NC2=O)C3=O)n1 (centres unmarked) [A135]	30 to 60	1710 ± 120
O=C(Cc1cccc2ccccc12)NCc1ccc(CNCc2ccc3c(c2)C(=O)N(C2CCC(=O)NC2=O)C3=O)cc1 (centres unmarked) [A175]	60 to 90	14.4 ± 6.4
O=C(Cn1c2ccccc2c2cccnc21)NCc1ccc(CNC(=O)c2ccc3c(c2)C(=O)N(C2CCC(=O)NC2=O)C3=O)c(F)c1 (centres unmarked) [A104]	60 to 90	2.5 ± 0.7
